From patent US20130137081A1, “METHOD OF CRYOPRESERVING SELECTED SPERM CELLS” (XY,LLC, priority 1999, published 2013)

Key:
flow-sorted bull sperm = experiment: Post-thaw motility of bulk-sorted frozen sperm: Hoechst 33342 dye concentration and laser intensity (Example 3); assay type: cell-based, bovine; conditions: for post-thaw motility: main effect mean
Description: Straws were thawed in a 37° C. water bath for 30 sec. Blind estimates of progressive motility were made after incubating samples at 37° C. for 0, 1 and 2 h post-thawing. Each of two observers estimated progressive sperm motility from each of two straws of semen. These four blind estimates for each experimental unit represent subsampling.
Sperm of 6 bulls were collected and prepared as described in Example 1A.
a) Experimental Design. • One ejaculate (2 bulls) and 2 ejaculates on different days (4 bulls) were used in a 2 by 2 design plus control.
b) Staining and Sorting. • Staining, preparation for sorting and sorting sperm were achieved as described in Example 2 except that the Hoechst 33342 dye was added to sperm suspensions at a final concentration of 149 μM or 224 μM; and sperm were bulked-sorted with the laser operating at 100 mW or 150 mW of incident power. Bulk-sorted sperm were collected into 50-ml plastic tubes as described in Example 2. Four tubes containing approximately 15×10^6 total sperm/tube were collected over 1 h for each bull. The sorted sperm were incubated for 1 h at 22° C. to simulate a longer sorting time.
c) Preparation for Freezing. • Following incubation, the sperm were cooled as in Example 2. The sperm were then concentrated by centrifugation at 5° C. at 850×g for 20 minutes. After removing the supernatant, 150 μl of Tris-A fraction extender was added to each 150-μl sperm pellet at 5° C. All of the sperm pellets were suspended by gentle repeated aspiration and the sperm of individual bulls were pooled. Tris B-fraction extender was added stepwise as described in Example 2. A non-stained, non-sorted control for each bull was prepared at 20×10^6 sperm/ml in Tris extender containing 6% glycerol and cooled to 5° C. while the bulk-sorted sperm were being prepared.
d) Equilibration and Freezing. • The control and sorted sperm were packaged into 0.25-ml polyvinylchloride straws as described in Example 2, equilibrated at 5° C. for 3 h and then frozen conventionally.
Straws were thawed and evaluated as described in Example 2.

bull sperm = experiment: Post-thaw progressive motility of sperm frozen in WET extender with SDS (Example 5A); assay type: cell-based, bovine; conditions: mean of 6 bulls
Description: Sperm of 6 bulls were collected and prepared as described in Example 1A. Sperm from each of 6 bulls were extended to 20×10^6/ml in 20% whole egg Tris (“WET”) extender containing 0, 0.03, 0.06, 0.09, or 0.12 percent SDS, packaged into straws and frozen. WET extender was prepared using 3.028 g of Tris[hydroxymethyl]aminomethane, 1.78 g of citric acid monohydrate, and 1.25 g of fructose per 100 ml of double distilled water, to which 20% whole egg (vol/vol) was added. The WET extender was prepared at a pH of about 7.0 and contained a final glycerol concentration of about 6% (vol/vol). The WET extender also contained 1000 IU of penicillin “G” sodium and 100 μg of streptomycin sulfate/ml.

SMILES: CCOc1ccc(-c2nc3ccc(-c4nc5ccc(N6CCN(C)CC6)cc5[nH]4)cc3[nH]2)cc1 [Hoechst 33342, bis-Benzimide H-33342]
- effect of dye concentration on post-thaw sperm motility (flow-sorted bull sperm; 149 μM vs 224 μM): no effect
- post-thaw motility (flow-sorted bull sperm; Hoechst 33342 149 μM, 0 h incubation at 37° C.): 41%
- post-thaw motility (flow-sorted bull sperm; Hoechst 33342 149 μM, 1 h incubation at 37° C.): 39%
- post-thaw motility (flow-sorted bull sperm; Hoechst 33342 149 μM, 2 h incubation at 37° C.): 30%
- post-thaw motility (flow-sorted bull sperm; Hoechst 33342 224 μM, 0 h incubation at 37° C.): 42%
- post-thaw motility (flow-sorted bull sperm; Hoechst 33342 224 μM, 1 h incubation at 37° C.): 39%
- post-thaw motility (flow-sorted bull sperm; Hoechst 33342 224 μM, 2 h incubation at 37° C.): 30%

SMILES: CCCCCCCCCCCCOS(=O)(=O)[O-].[Na+] [SDS, sodium dodecyl sulfate]
- progressive motile sperm approximately 10 minutes post-thaw (bull sperm; WET extender containing 0.03 percent SDS): 51%
- progressive motile sperm approximately 10 minutes post-thaw (bull sperm; WET extender containing 0.06 percent SDS): 50%
- progressive motile sperm approximately 10 minutes post-thaw (bull sperm; WET extender containing 0.09 percent SDS): 51%
- progressive motile sperm approximately 10 minutes post-thaw (bull sperm; WET extender containing 0.12 percent SDS): 48%
